Results published in PubChem BioAssay AID328 (DTP/NCI, 2004).
Where “and” joins values, the source holds several entries; their conditions need not be identical. Equal entries are not always repeated. Toxic doses and inconclusive results are not listed. Rule for the calls: active = survival T/C of 150% or more; inactive = T/C below 125% in these data.

Tested on: BDF1 mice, P388 leukemia ip, median survival T/C
Test: NCI In Vivo Anticancer Drug Screen. Data for tumor model P388 Leukemia (intraperitoneal) in B6D2F1 (BDF1) mice
Details: endpoint: median survival time, higher = longer survival
Outline: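 Each value expresses how treatment altered survival: treated-mouse outcome over vehicle-mouse outcome, both groups bearing the transplanted tumour.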

[1] = dose: 6.25 mg/kg/injection, schedule: Q01DX009 (ip), vehicle: Klucel (hydroxypropylcellulose) (HPC)
[2] = dose: 12.5 mg/kg/injection, schedule: Q01DX009 (ip), vehicle: Klucel (hydroxypropylcellulose) (HPC)
[3] = dose: 25.0 mg/kg/injection, schedule: Q01DX009 (ip), vehicle: Klucel (hydroxypropylcellulose) (HPC)
[4] = dose: 50.0 mg/kg/injection, schedule: Q01DX009 (ip), vehicle: Klucel (hydroxypropylcellulose) (HPC)
[5] = dose: 33.0 mg/kg/injection, schedule: Q04DX003 (ip), vehicle: saline with Tween-80
[6] = dose: 50.0 mg/kg/injection, schedule: Q04DX003 (ip), vehicle: saline with Tween-80
[7] = dose: 75.0 mg/kg/injection, schedule: Q04DX003 (ip), vehicle: saline with Tween-80
[8] = dose: 12.5 mg/kg/injection, schedule: Q01DX009 (ip), vehicle: saline with Tween-80
[9] = dose: 100.0 mg/kg/injection, schedule: Q04DX003 (ip), vehicle: saline with Tween-80
[10] = dose: 200.0 mg/kg/injection, schedule: Q01DX009 (ip), vehicle: saline with Tween-80
[11] = dose: 200.0 mg/kg/injection, schedule: Q04DX003 (ip), vehicle: saline with Tween-80
[12] = dose: 400.0 mg/kg/injection, schedule: Q04DX003 (ip), vehicle: saline with Tween-80
[13] = dose: 50.0 mg/kg/injection, schedule: Q01DX009 (ip), vehicle: saline with Tween-80

Measured: T/C

N#CSc1ccc(Nc2ccc(SC#N)cc2)cc1
inactive: [1] 100 % of control | [2] 100 % of control | [3] 118 % of control | dose: 35.0 mg/kg/injection, schedule: Q01DX009 (ip), vehicle: Klucel (hydroxypropylcellulose) (HPC) 108 % of control | [4] 109 % of control | dose: 53.0 mg/kg/injection, schedule: Q01DX009 (ip), vehicle: Klucel (hydroxypropylcellulose) (HPC) 105 % of control | dose: 80.0 mg/kg/injection, schedule: Q01DX009 (ip), vehicle: Klucel (hydroxypropylcellulose) (HPC) 109 % of control and 110 % of control | dose: 120.0 mg/kg/injection, schedule: Q01DX009 (ip), vehicle: Klucel (hydroxypropylcellulose) (HPC) 120 % of control and 122 % of control

CCOC(=O)C(Cc1ccc(N(CCCl)CCCl)cc1)NC(=O)CNC(C)=O (stereo unspecified)
active: dose: 12.5 mg/kg/injection, schedule: Q04DX003 (ip), vehicle: saline with Tween-80 177 % of control | dose: 25.0 mg/kg/injection, schedule: Q04DX003 (ip), vehicle: saline with Tween-80 200 % of control | [5] 280 % of control and 218 % of control | [6] 259 % of control and 272 % of control and 170 % of control | [7] 204 % of control

N#CC(Br)C(N)=O (stereo unspecified)
inactive: dose: 2.5 mg/kg/injection, schedule: Q01DX009 (ip), vehicle: saline 98 % of control | dose: 5.0 mg/kg/injection, schedule: Q01DX009 (ip), vehicle: saline 120 % of control

Cc1cc(C(=O)c2ccccn2)c2cccc(C(F)(F)F)c2n1
inactive: [8] 95 % of control | [9] 95 % of control | [10] 86 % of control | [11] 90 % of control | [12] 90 % of control

COc1cc2ccncc2cc1O
inactive: dose: 3.13 mg/kg/injection, schedule: Q04DX003 (ip), vehicle: water 97 % of control | dose: 6.25 mg/kg/injection, schedule: Q04DX003 (ip), vehicle: water 97 % of control | dose: 12.5 mg/kg/injection, schedule: Q04DX003 (ip), vehicle: water 94 % of control | dose: 25.0 mg/kg/injection, schedule: Q04DX003 (ip), vehicle: water 94 % of control | dose: 50.0 mg/kg/injection, schedule: Q04DX003 (ip), vehicle: water 101 % of control

O=C(O)c1cccc(S(=O)(=O)N(CCO)CCO)c1
inactive: [6] 100 % of control | [9] 90 % of control | [11] 95 % of control

C=C1C(=O)OC2/C=C(\C)CC(O)/C=C(\C)CC(OC(=O)/C(=C\C)COC(C)=O)C12 (stereo unspecified)
inactive: dose: 20.0 mg/kg/injection, schedule: Q01DX009 (ip), vehicle: saline 122 % of control | dose: 66.0 mg/kg/injection, schedule: Q01DX009 (ip), vehicle: saline 122 % of control
active: dose: 44.0 mg/kg/injection, schedule: Q01DX009 (ip), vehicle: saline 150 % of control

Nc1cccc2c1C(=O)c1cccc(NC(=O)c3ccccc3)c1C2=O
inactive: [1] 104 % of control | [2] 109 % of control | [3] 116 % of control | [4] 113 % of control | dose: 100.0 mg/kg/injection, schedule: Q01DX009 (ip), vehicle: Klucel (hydroxypropylcellulose) (HPC) 115 % of control | dose: 200.0 mg/kg/injection, schedule: Q01DX009 (ip), vehicle: Klucel (hydroxypropylcellulose) (HPC) 122 % of control
active: dose: 400.0 mg/kg/injection, schedule: Q01DX009 (ip), vehicle: Klucel (hydroxypropylcellulose) (HPC) 151 % of control

COC(=O)C(Cc1c[nH]c2ccccc12)NC(=O)C(Cc1c[nH]c2ccccc12)NC(=O)OC(C)(C)C (stereo unspecified)
inactive: dose: 100.0 mg/kg/injection, schedule: Q01DX001 (ip), vehicle: saline with Tween-80 90 % of control | dose: 200.0 mg/kg/injection, schedule: Q01DX001 (ip), vehicle: saline with Tween-80 86 % of control | dose: 400.0 mg/kg/injection, schedule: Q01DX001 (ip), vehicle: saline with Tween-80 90 % of control

CC1=NN(c2ccc(S(=O)(=O)O)cc2)C(=O)/C1=C/c1ccc(Cl)cc1
inactive: dose: 50.0 mg/kg/injection, schedule: Q01DX009 (ip), vehicle: saline 92 % of control | dose: 100.0 mg/kg/injection, schedule: Q01DX009 (ip), vehicle: saline 90 % of control

COc1cc(/C=C/[N+](=O)[O-])c(OC)cc1Br
inactive: dose: 3.12 mg/kg/injection, schedule: Q01DX009 (ip), vehicle: saline with Tween-80 99 % of control | dose: 6.25 mg/kg/injection, schedule: Q01DX009 (ip), vehicle: saline with Tween-80 103 % of control | [8] 105 % of control | [13] 94 % of control
active: dose: 25.0 mg/kg/injection, schedule: Q01DX009 (ip), vehicle: saline with Tween-80 153 % of control

CNC(=N)c1ccc(NC(=N)c2ccc(NC(=N)c3ccc(NC(=O)Nc4ccc(C#N)cc4)cc3)cc2)cc1
inactive: dose: 3.0 mg/kg/injection, schedule: Q04DX003 (ip), vehicle: saline with Tween-80 123 % of control | [13] 103 % of control
active: dose: 14.0 mg/kg/injection, schedule: Q04DX003 (ip), vehicle: saline with Tween-80 163 % of control | dose: 16.0 mg/kg/injection, schedule: Q01DX009 (ip), vehicle: saline with Tween-80 157 % of control | dose: 24.0 mg/kg/injection, schedule: Q01DX009 (ip), vehicle: saline with Tween-80 173 % of control and 200 % of control | [5] 250 % of control and 168 % of control and 200 % of control | dose: 37.0 mg/kg/injection, schedule: Q01DX009 (ip), vehicle: saline with Tween-80 230 % of control | dose: 37.5 mg/kg/injection, schedule: Q01DX009 (ip), vehicle: saline with Tween-80 153 % of control | [6] 250 % of control and 186 % of control | [7] 250 % of control and 172 % of control | dose: 112.0 mg/kg/injection, schedule: Q04DX003 (ip), vehicle: saline with Tween-80 216 % of control

C/C(CC(C)(C)c1ccccc1)=N/NC(N)=O
inactive: dose: 50.0 mg/kg/injection, schedule: Q04DX003 (ip), vehicle: saline sonified 90 % of control | dose: 100.0 mg/kg/injection, schedule: Q04DX003 (ip), vehicle: saline sonified 100 % of control | dose: 200.0 mg/kg/injection, schedule: Q04DX003 (ip), vehicle: saline sonified 95 % of control

Nc1c(C(=O)O)ccc2c1C(=O)c1ccccc1C2=O
inactive: dose: 44.0 mg/kg/injection, schedule: Q04DX003 (ip), vehicle: gum acacia 87 % of control | dose: 50.0 mg/kg/injection, schedule: Q01DX009 (ip), vehicle: gum acacia 92 % of control | dose: 67.0 mg/kg/injection, schedule: Q04DX003 (ip), vehicle: Klucel (hydroxypropylcellulose) (HPC) 115 % of control | dose: 67.0 mg/kg/injection, schedule: Q04DX003 (ip), vehicle: gum acacia 100 % of control | dose: 100.0 mg/kg/injection, schedule: Q01DX009 (ip), vehicle: gum acacia 103 % of control | dose: 100.0 mg/kg/injection, schedule: Q04DX003 (ip), vehicle: Klucel (hydroxypropylcellulose) (HPC) 120 % of control | dose: 100.0 mg/kg/injection, schedule: Q04DX003 (ip), vehicle: gum acacia 87 % of control | dose: 150.0 mg/kg/injection, schedule: Q04DX003 (ip), vehicle: Klucel (hydroxypropylcellulose) (HPC) 110 % of control | dose: 150.0 mg/kg/injection, schedule: Q04DX003 (ip), vehicle: gum acacia 116 % of control

Cc1ccc(S(=O)(=O)N(C)c2cc(Cl)c(C(N)=O)c(Cl)c2)cc1
inactive: dose: 6.25 mg/kg/injection, schedule: Q01DX001 (ip), vehicle: saline sonified 95 % of control | dose: 12.5 mg/kg/injection, schedule: Q01DX001 (ip), vehicle: saline sonified 100 % of control | dose: 25.0 mg/kg/injection, schedule: Q01DX001 (ip), vehicle: saline sonified 100 % of control | [13] 112 % of control | dose: 100.0 mg/kg/injection, schedule: Q01DX009 (ip), vehicle: saline with Tween-80 95 % of control | [9] 105 % of control | [10] 114 % of control | [11] 97 % of control | dose: 400.0 mg/kg/injection, schedule: Q01DX009 (ip), vehicle: saline with Tween-80 95 % of control | [12] 106 % of control

CC/C(=C(\CC)c1ccc(OCCN(CC)CC)cc1)c1ccc(OCCN(CC)CC)cc1
inactive: dose: 12.5 mg/kg/injection, schedule: Q01DX010 (ip), vehicle: carboxymethylcellulose (CMC) 100 % of control | dose: 25.0 mg/kg/injection, schedule: Q01DX010 (ip), vehicle: carboxymethylcellulose (CMC) 105 % of control

CC12OC(=O)CC1CC(=O)O2 (stereo unspecified)
inactive: dose: 50.0 mg/kg/injection, schedule: Q01DX001 (ip), vehicle: saline 95 % of control | dose: 100.0 mg/kg/injection, schedule: Q01DX001 (ip), vehicle: saline 95 % of control | dose: 200.0 mg/kg/injection, schedule: Q01DX001 (ip), vehicle: saline 105 % of control
